Key:
[1] = target: T1, human RORγt (Ligand Binding Domain) (Homo sapiens, UniProt P51449); assay: Fluorescence Polarization (FP) Assay; settings: 100 nM human RORγt LBD, 25 nM TAMRA probe, values are activity range bounds
T1 construct: purchased Crelux (Planegg, Germany) batch no PC5032-1
T1 sequence (P51449 269-508 limits assumed): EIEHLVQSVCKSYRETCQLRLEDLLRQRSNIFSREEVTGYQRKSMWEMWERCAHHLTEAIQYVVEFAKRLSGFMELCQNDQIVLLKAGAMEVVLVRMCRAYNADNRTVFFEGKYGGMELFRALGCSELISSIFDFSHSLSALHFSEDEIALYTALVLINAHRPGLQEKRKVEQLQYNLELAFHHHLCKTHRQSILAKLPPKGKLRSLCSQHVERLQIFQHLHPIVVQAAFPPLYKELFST
Method in brief: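 Binding to the RORγt ligand-binding domain was followed by FP. Displacement of a TAMRA-tagged RORγt ligand tracer (910 g/mol) was measured, with DMSO-only wells as negative control.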

[2] = target: T2, ligand binding domain of human RORγ (Homo sapiens, UniProt P51449); assay: RORγ Reporter Assay (Gal4); assay type: cell-based; settings: for inhibition at 1 µM: HEK-293T, 1 μM test compound, HEK293t RORγ reporter cells, 24 hour, read-out: Gal4 activity range @ 1 μM (% inhibition); for Gal4 activity range @ 0.1 μM (% inhibition): RORγ Reporter Assay (Gal4), HEK293t reporter cells, compound at 0.1 μM, values are activity range bounds
T2 construct: host or cells: HEK293t
T2 sequence (P51449 269-508 limits assumed): T1 sequence (P51449 269-508 limits assumed)
Method in brief: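 HEK293t cells expressing Gal4 DBD–human RORγ LBD hybrid with Gal4-UAS firefly luciferase reporter; compounds at final 1,000 nM and 100 nM (0.1% DMSO), triplicate, medium with 10% charcoal-stripped FBS, 24 h at 37 °C. Luminescence read; percent reduction of RORγ activity calculated versus vehicle-only wells.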

IC50 [1] [nM] | inhibition at 1 µM [2] [%] | Gal4 activity range @ 0.1 μM (% inhibition) [2] [% inhibition] | Structure (SMILES)
< 500 | > 80 | >80 | CS(=O)(=O)c1ccc(CNc2ncnc(N(Cc3ccc(C(F)(F)F)cc3)C3CC3)c2F)cn1 [Example A89, N6-cyclopropyl-5-fluoro-N4-[(6-methylsulfonyl-3-pyridyl)methyl]-N6-[[4-(trifluoromethyl)phenyl]methyl] pyrimidine-4,6-diamine]
< 500 | > 0 |  | CC(C)n1nc(C2CC2)cc1CN(c1ncnc(NCc2ccc(CC(N)=O)cc2)c1F)C1CC1 [Example A90, 2-[4-[[[6-[cyclopropyl-[(5-cyclopropyl-2-isopropyl-pyrazol-3-yl)methyl]amino]-5-fluoro-pyrimidin-4-yl]amino]methyl]phenyl]acetamide]
< 500 | > 80 | >80 | O=S(=O)(Nc1ccc(CNc2ncnc(N(Cc3ccc(C(F)(F)F)cc3)C3CC3)c2F)cc1)C(F)F [Example A91, N-[4-[[[6-[cyclopropyl-[[4-(trifluoromethyl)phenyl]methyl]amino]-5-fluoro-pyrimidin-4-yl]amino]methyl]phenyl]-1,1-difluoro-methanesulfonamide]
< 1000 | > 80 | >20 | NC(=O)CC1CC(CNc2ncnc(N(Cc3ccc(C(F)(F)F)cc3)C3CC3)c2F)C1 (centres unmarked) [Example A95, 2-[3-[[[6-[cyclopropyl-[[4-(trifluoromethyl)phenyl]methyl]amino]-5-fluoro-pyrimidin-4-yl]amino]methyl]cyclobutyl] acetamide]
< 500 | > 80 | >50 | CC(C)c1ccc(CN(c2ncnc(NCc3ccc(CC(N)=O)cc3)c2F)C2CC2)cn1 [Example A97, 2-[4-[[[6-[cyclopropyl-[(6-isopropyl-3-pyridyl)methyl]amino]-5-fluoro-pyrimidin-4-yl]amino]methyl]phenyl]acetamide]
< 500 | > 80 | >50 | NC(=O)Cc1ccc(CNc2ncnc(N(Cc3cnc(C(F)(F)F)nc3)C3CC3)c2F)cc1 [Example A98, 2-[4-[[[6-[cyclopropyl-[[2-(trifluoromethyl)pyrimidin-5-yl]methyl]amino]-5-fluoro-pyrimidin-4-yl]amino]methyl]phenyl]acetamide]
< 500 | > 50 | >50 | NC(=O)Cc1ccc(CNc2ncnc(N(Cc3cccc(C(F)(F)F)c3)C3CC3)c2F)cc1 [Example A101, 2-[4-[[[6-[cyclopropyl-[[3-(trifluoromethyl)phenyl]methyl]amino]-5-fluoro-pyrimidin-4-yl]amino]methyl]phenyl]acetamide]
< 1000 | > 80 | >0 | CC(c1ccc(C(F)(F)F)nc1)N(c1ncnc(NCc2ccc(CC(N)=O)cc2)c1F)C1CC1 (centres unmarked) [Example A103, 2-[4-[[[6-[cyclopropyl-[1-[6-(trifluoromethyl)-3-pyridyl]ethyl]amino]-5-fluoro-pyrimidin-4-yl]amino]methyl]phenyl]acetamide]
< 1000 | > 80 | >50 | CC(c1ccc(C(F)(F)F)cn1)N(c1ncnc(NCc2ccc(CC(N)=O)cc2)c1F)C1CC1 (centres unmarked) [Example A104, 2-[4-[[[6-[cyclopropyl-[1-[5-(trifluoromethyl)-2-pyridyl]ethyl]amino]-5-fluoro-pyrimidin-4-yl]amino]methyl]phenyl]acetamide]
< 1000 | > 50 | >0 | NC(=O)Cc1ccc(CNc2cc(N(Cc3ccc(C(F)(F)F)cc3)C3CC3)ncn2)cc1 [Example A107, 2-[4-[[[6-[cyclopropyl-[[4-(trifluoromethyl)phenyl]methyl]amino]pyrimidin-4-yl]amino]methyl]phenyl]acetamide]
